From US9155726B2, “Method of treatment using checkpoint kinase 1 inhibitors” (ARRAY BIOPHARMA INC., priority 2009, dated 2015)
Read-outs that look alike come from different tables or passages of the source.

Experiments:
[1] = system: subcutaneous HT-29 xenografts; assay: TGI/tolerability experiment, CPT11 with simultaneous or 24 hour delayed Compound 1 (Example 3); format: in vivo, nude mice; details: single agents: CPT11 100 mg/kg IP single dose; Compound 1 50 mg/kg PO BID 3 days
Protocol: (§1) Female nude mice were inoculated subcutaneously with 5×10^6 HT-29 tumor cells in 1×PBS (100 μL). Twelve days later, mice were randomized into groups of 6 with an average tumor volume in each group of approximately 250 mm^3. […] Tumor size and animal body weight were measured over the course of the study on the days indicated with data points in FIG. 5. Tumor volume was calculated using the formula: volume=(width^2×length)/2.

[2] = system: subcutaneous HT-29 xenografts; assay: TGI experiment, CPT11 with Compound 5 (Example 12); format: in vivo
Protocol: as §1, with “4×10^6” for “5×10^6”, “7” for “6”, “200” for “250”, “13.” for “5.”, “volume=(width^2×length)/2. No mortalities occurred over the course of this study.” for “volume=(width^2×length)/2.”

[3] = system: subcutaneous HT-29 xenografts; details: mouse, in vivo, ip, 100 mg/kg
Protocol: as §1, with “μL). Fourteen” for “μL). Twelve”, “of 8” for “of 6”, “approximately 260” for “approximately 250”, “FIG. 12.” for “FIG. 5.”

[4] = Tolerability of CPT11 with Compound 2 started 12, 24 or 48 hours post CPT11 (Example 4); format: in vivo, nude mice; details: single agents: CPT11 100 mg/kg IP Q10Dx2; Compound 2 25 mg/kg PO BID 3 days per cycle; naive mice
Phosphorylation of cdc2 [5] = assay: Inhibition of CPT11 induced phosphorylation of cdc2 in HT-29 tumors, immunoblot (Example 6); format: in vivo, nude mice; details: 3 consecutive days BID versus single dose, 25 mg/kg PO, from 24 hours after CPT11 100 mg/kg
Protocol: Female nude mice were inoculated subcutaneously with 5×10^6 HT-29 tumor cells in 1×PBS (100 μL). Twenty four days later, mice were randomized into groups of 3 with an average tumor volume in each group of approximately 450 mm^3. […] Compound 2 was given as a single dose, or alternatively for 3 consecutive days on a BID schedule. All tumors from animals dosed with Compound 2 were harvested 2 hours post dose. Phosphorylation of cdc2 was assessed by immunoblot and normalized to total ERK expression. Results are expressed as POC.

[6] = Compound 2 exposure after single dose or 3 days dosing (Example 6); format: in vivo, nude mice; details: 25 mg/kg PO, from 24 hours after CPT11 100 mg/kg; t-test>0.05
[7] = system: subcutaneous HT-29 xenografts; assay: TGI experiment, CPT11 with Compound 2 for 1 or 3 days (Example 5); format: in vivo; details: single agents: CPT11 100 mg/kg IP Q10Dx2; Compound 2 25 mg/kg PO BID
Protocol: as §1, with “of 8” for “of 6”, “approximately 215” for “approximately 250”, “FIG. 6.” for “FIG. 5.”, “volume=(width^2×length)/2. No mortalities occurred over the course of this study.” for “volume=(width^2×length)/2.”

Phosphorylation of cdc2 [8] = assay: Inhibition of CPT11 induced phosphorylation of cdc2 in HT-29 tumors, immunoblot (Example 7); format: in vivo, nude mice; details: 5, 10 or 25 mg/kg PO BID 3 consecutive days from 24 hours after CPT11 100 mg/kg; HT-29 tumors harvested 96 hours post CPT11
Protocol: Female nude mice were inoculated subcutaneously with 5×10^6 HT-29 tumor cells in 1×PBS (100 μL). Twenty nine days later, mice were randomized into groups of 3 with an average tumor volume in each group of approximately 500 mm^3. […] Compound 5 was given as a single dose at 25 mg/kg, or alternatively 5, 10, or 25 mg/kg doses were given for 3 consecutive days on BID schedules. […] Phosphorylation of cdc2 was assessed by immunoblot and normalized to total ERK expression. Results are expressed as POC.

[9] = single agents: CPT11 100 mg/kg IP Q10Dx2, Compound 5 PO BID (dose of single-agent group not given)

Structure (SMILES): CCc1c2c(nc3ccc(OC(=O)N4CCC(N5CCCCC5)CC4)cc13)-c1cc3c(c(=O)n1C2)COC(=O)[C@]3(O)CC [CPT11, irinotecan]
- % Mortality [1]: 0%
- Day of Maximum % Body Weight Loss ([2]; mouse, in vivo, 100 mg/kg): 18 days
- Maximum % Body Weight Loss ([2]; mouse, in vivo, 100 mg/kg): 6.3%
- Maximum % Body Weight Loss [3]: 0.08%
- % Mortality [4]: 0%
- Day of Maximum % Body Weight Loss [4]: 14 days
- Maximum % Body Weight Loss [4]: 3.4%

Structure (SMILES): N[C@@H]1CCCN(c2c(Br)cnc3[nH]cc(NC(=O)c4cccnc4)c23)C1 [Compound 1, (R)—N-(4-(3-aminopiperidin-1-yl)-5-bromo-1H-pyrrolo[2,3-b]pyridin-3-yl)nicotinamide]
- Inhibition of CPT11 induced phospho-cdc2 with extended dosing (Phosphorylation of cdc2 [5]): Superior Inhibition

Structure (SMILES): CC(C)C(=O)Nc1c[nH]c2ncc(Br)c(N3CCC[C@@H](N)C3)c12 [Compound 2, (R)—N-(4-(3-aminopiperidin-1-yl)-5-bromo-1H-pyrrolo[2,3-b]pyridin-3-yl)isobutyramide]
- Compound 2 exposure, single dose versus administration for 3 days [6]: not statistically different
- Day of Maximum % Body Weight Loss [4]: 17 days
- Maximum % Body Weight Loss [4]: 0.3%
- Day of Maximum % Body Weight Loss [7]: 3 days
- Maximum % Body Weight Loss [7]: 7.2%

Structure (SMILES): N[C@@H]1CCCN(c2c(Br)cnc3[nH]cc(NC(=O)C4CC4)c23)C1 [Compound 5, (R)—N-(4-(3-aminopiperidin-1-yl)-5-bromo-1H-pyrrolo[2,3-b]pyridin-3-yl)cyclopropanecarboxamide]
- Day of Maximum % Body Weight Loss [2, 9]: 18 days
- Maximum % Body Weight Loss [2, 9]: 2.5%
- Inhibition of CPT11 induced phospho-cdc2 with extended dosing (Phosphorylation of cdc2 [8]): Dose-Related Inhibition
